In patent US20240294499A1, “TARGETED PROTEIN DEGRADATION USING BIFUNCTIONAL COMPOUNDS THAT BIND UBIQUITIN LIGASE AND TARGET MCL-1 PROTEIN” (Captor Therapeutics S.A., priority 2021, published 2024):
Where a name gives a salt, the structure may show the parent alone.

Each compound was assayed on MV-4-11 cells (assay: Cell viability assay (CellTiter-Glo), MV-4-11). Details: Homo sapiens, MV4-11, 24 hours incubation, 1% FBS, read-out: Average pIC50 by molecule MV-4-11 (converted).
Assay type: cell-based
Source text: The effect of various compounds of the invention on the viability of OPM-2, MV-4-11 and ARH-77 cell lines was investigated, using the CTG protocol described below.
OPM-2 and MV-4-11 cell lines are derived from multiple myeloma and acute myeloid leukaemia, respectively. Both cell lines are described in the literature as MCL-1 dependent lines, as opposed to lymphoblast-like ARH-77 cell line, which is described as independent of MCL-1 (Tron A E et al. Nat Commun. 2018; 9: 5341; Caenepeel S et al. Cancer Discov. 2018 December; 8(12):1582-1597).
Cells (OPM-2, MV-4-11 or ARH-77) were seeded on […] in a growth medium with FBS reduced to 1%. Next, compound stocks were pre-diluted in DMSO and added directly to the cells growth medium (final DMSO concentration: 0.5%). Compound concentrations used in this assay: 1/3 dilutions starting at 30 uM (9 to 12 points).
After 24 hours of incubation, cell viability was evaluated using CellTiter-Glo Luminescent Cell Viability Assay (Promega, cat #G7572). Luminescence signal was measured using a CLARIOstar Plus Multi-Mode Microplate Reader (574-590 nm).
Results were normalized to DMSO control.
With `Cc1nn(C)c(C)c1-c1c(Cl)ccc2c(CCCOc3cccc4ccccc34)c(C(=O)O)n(CCN3CCN(C(=O)COc4cccc5c4C(=O)N(C4CCC(=O)N(C)C4=O)C5=O)CC3)c12` (stereo not shown) [Compound 205, 6-chloro-1-(2-(4-(2-((2-(1-methyl-2,6-dioxopiperidin-3-yl)-1,3-dioxoisoindolin-4-yl)oxy)acetyl)piperazin-1-yl)ethyl)-3-(3-(naphthalen-1-yloxy)propyl)-7-(1,3,5-trimethyl-1H-pyrazol-4-yl)-1H-indole-2-carboxylic acid] the IC50 was no more than 316 nM.
With `Cc1nn(C)c(C)c1-c1c(Cl)ccc2c(CCCOc3cccc4ccccc34)c(C(=O)O)n(CCN3CCN(C(=O)CCc4nc5c(C(=O)NC6CCC(=O)NC6=O)cccc5[nH]4)CC3)c12` (stereo not shown) [Compound 265] the IC50 was no more than 1000 nM.

These compounds were tested against [MCL-1]-[compound of formula (I)]-[CRBN/DDB1] complex (Homo sapiens, UniProt Q07820+Q96SW2) (assay: AlphaLISA dose response ternary complex formation assay). Details: read-out: AlphaLISA dose response Average pEC50 by molecule (converted).
Sequence of [MCL-1]-[compound of formula (I)]-[CRBN/DDB1] complex (Q07820 whole entry): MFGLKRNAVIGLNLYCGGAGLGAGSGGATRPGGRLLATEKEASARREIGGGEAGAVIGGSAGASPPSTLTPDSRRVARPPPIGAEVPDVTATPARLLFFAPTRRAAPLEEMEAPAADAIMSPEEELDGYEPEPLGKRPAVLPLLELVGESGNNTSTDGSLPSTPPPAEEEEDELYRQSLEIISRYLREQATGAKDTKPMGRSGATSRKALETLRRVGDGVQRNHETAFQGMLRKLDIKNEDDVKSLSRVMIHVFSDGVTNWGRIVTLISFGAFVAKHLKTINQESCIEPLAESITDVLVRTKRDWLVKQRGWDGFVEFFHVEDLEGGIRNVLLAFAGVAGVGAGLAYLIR
Sequence of [MCL-1]-[compound of formula (I)]-[CRBN/DDB1] complex (Q96SW2 whole entry): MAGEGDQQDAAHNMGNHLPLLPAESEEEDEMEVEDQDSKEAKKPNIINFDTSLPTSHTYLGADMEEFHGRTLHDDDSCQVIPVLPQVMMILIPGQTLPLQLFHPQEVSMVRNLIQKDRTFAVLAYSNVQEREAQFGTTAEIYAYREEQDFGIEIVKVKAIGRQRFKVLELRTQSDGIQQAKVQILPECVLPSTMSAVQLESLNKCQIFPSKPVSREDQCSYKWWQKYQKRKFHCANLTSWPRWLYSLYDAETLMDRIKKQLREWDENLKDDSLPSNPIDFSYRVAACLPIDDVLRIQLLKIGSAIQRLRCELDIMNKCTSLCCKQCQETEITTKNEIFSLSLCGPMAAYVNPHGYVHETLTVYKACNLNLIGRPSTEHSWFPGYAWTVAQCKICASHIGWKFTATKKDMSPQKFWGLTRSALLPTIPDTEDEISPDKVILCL
Sequence of [MCL-1]-[compound of formula (I)]-[CRBN/DDB1] complex (Q16531 whole entry partner): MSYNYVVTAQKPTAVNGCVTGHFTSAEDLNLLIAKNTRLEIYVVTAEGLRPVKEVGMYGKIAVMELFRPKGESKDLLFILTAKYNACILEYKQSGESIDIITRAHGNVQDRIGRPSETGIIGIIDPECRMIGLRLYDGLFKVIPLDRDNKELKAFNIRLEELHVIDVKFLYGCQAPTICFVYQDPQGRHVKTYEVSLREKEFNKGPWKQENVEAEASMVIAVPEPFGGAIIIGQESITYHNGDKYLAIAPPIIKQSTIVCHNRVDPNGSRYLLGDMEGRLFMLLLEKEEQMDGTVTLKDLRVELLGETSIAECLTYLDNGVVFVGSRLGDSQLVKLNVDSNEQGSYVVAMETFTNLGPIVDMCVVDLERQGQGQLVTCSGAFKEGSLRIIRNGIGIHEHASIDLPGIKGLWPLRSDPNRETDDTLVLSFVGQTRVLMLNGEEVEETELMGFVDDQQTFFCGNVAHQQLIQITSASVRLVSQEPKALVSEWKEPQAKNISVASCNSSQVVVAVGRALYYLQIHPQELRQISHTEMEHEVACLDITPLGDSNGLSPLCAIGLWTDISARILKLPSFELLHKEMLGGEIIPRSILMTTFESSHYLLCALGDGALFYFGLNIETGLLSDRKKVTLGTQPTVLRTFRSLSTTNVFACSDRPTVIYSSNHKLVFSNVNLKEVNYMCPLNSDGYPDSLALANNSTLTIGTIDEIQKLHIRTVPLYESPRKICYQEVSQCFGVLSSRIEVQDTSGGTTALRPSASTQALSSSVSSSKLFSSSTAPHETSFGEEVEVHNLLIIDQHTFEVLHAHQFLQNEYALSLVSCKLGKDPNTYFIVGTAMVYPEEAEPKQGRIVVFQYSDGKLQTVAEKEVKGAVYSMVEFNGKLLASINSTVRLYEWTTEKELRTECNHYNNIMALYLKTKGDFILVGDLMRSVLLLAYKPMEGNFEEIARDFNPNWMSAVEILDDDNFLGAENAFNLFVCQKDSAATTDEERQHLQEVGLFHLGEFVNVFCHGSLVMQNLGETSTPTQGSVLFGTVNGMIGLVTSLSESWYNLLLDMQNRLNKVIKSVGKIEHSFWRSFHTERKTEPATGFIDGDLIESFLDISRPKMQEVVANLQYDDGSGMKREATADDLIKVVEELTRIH
Assay type: binding
Experimental: The effect of the bifunctional compounds of the invention on the formation of a ternary complex composed of [MCL-1]-[compound of formula (I)]-[CRBN/DDB1] was investigated with two methods: AlphaLISA dose response assay or HTRF ternary complex assay.
Two types of protein solution were prepared: • 40 nM biotinylated hMCL-1, 40 μg/ml AlphaScreen Streptavidin-coated Donor Beads in PBS buffer with 0.1% Tween-20 and 1 mM DTT, • 200 nM 6×His-CRBN/Strep-DDB1, 40 μg/ml AlphaLISA Anti-6×His Acceptor beads in PBS buffer with 0.1% Tween-20 and 1 mM DTT.
The prepared solutions were incubated at room temperature for 45 min and then the solution containing the donor beads was mixed with the solution containing the acceptor beads.
The tested compounds were dispensed onto a white 384-well AlphaPlate 384 SW. DMSO was backfilled to all wells, resulting in a final DMSO content of 2%. Wells containing only DMSO served as background. Next, 10 μl of solution with donor and acceptor beads was added to the wells.
The plate was sealed with transparent film and shaken using a VibroTurbulator for 60 see at room temperature, level 3. The plate was then spun down shortly (10 s, 1000 rcf, room temperature) and incubated at 25° C. for 30 min.
The read-out was performed with PerkinElmer Enspire Multimode Plate Reader (method for AlphaLISA 384-well low volume, Filterset: λexc=680 nm, λem=615 nm).
The results were analyzed as follows: • 1) an average of luminescence for background signal was calculated and used as a negative control; • 2) average of the maximum measured luminescence for 233 was calculated and used as an internal positive control; • 3) raw luminescence values were normalized against positive and negative controls; • 4) concentration points above the hook point were excluded; • 5) EC50 and pEC50 values were determined.
For `Cc1c(-c2cccc3c(CCCOc4cccc5ccccc45)c(C(=O)O)n(CCN4CCN(C(=O)COc5cccc6c5C(=O)N(C5CCC(=O)NC5=O)C6=O)CC4)c23)c(COc2ccc(Br)c(C=O)c2)nn1C` (stereo not shown) [Compound 251, 7-(3-((4-Bromo-3-formylphenoxy)methyl)-1,5-dimethyl-1H-pyrazol-4-yl)-1-(2-(4-(2-((2-(2,6-dioxopiperidin-3-yl)-1,3-dioxoisoindolin-4-yl)oxy)acetyl)piperazin-1-yl)ethyl)-3-(3-(naphthalen-1-yloxy)propyl)-1H-indole-2-carboxylic acid], the EC50 was less than 100 nM.
Work on `Cc1nn(C)c(C)c1-c1c(Cl)ccc2c(CCCOc3cccc4c3C3CCC4C3)c(C(=O)O)n(CCN3CCN(C(=O)COc4cccc5c4CN(C4CCC(=O)NC4=O)C5=O)CC3)c12` (stereo not shown) [Compound 352, 6-Chloro-1-(2-(4-(2-((2-(2,6-dioxopiperidin-3-yl)-1-oxoisoindolin-4-yl)oxy)acetyl)piperazin-1-yl)ethyl)-3-(3-((1,2,3,4-tetrahydro-1,4-methanonaphthalen-5-yl)oxy)propyl)-7-(1,3,5-trimethyl-1H-pyrazol-4-yl)-1H-indole-2-carboxylic acid] yielded an EC50 of less than 1000 nM.
`Cc1nn(C)c(C)c1-c1c(Cl)ccc2c(CCCOc3cccc4ccccc34)c(C(=O)O)n(CCN3CC4CC(C3)N4C(=O)COc3cccc4c3C(=O)N(C3CCC(=O)NC3=O)C4=O)c12` (stereo not shown) [Compound 208, 6-chloro-1-(2-(6-(2-((2-(2,6-dioxopiperidin-3-yl)-1,3-dioxoisoindolin-4-yl)oxy)acetyl)-3,6-diazabicyclo[3.1.1]heptan-3-yl)ethyl)-3-(3-(naphthalen-1-yloxy)propyl)-7-(1,3,5-trimethyl-1H-pyrazol-4-yl)-1H-indole-2-carboxylic acid] was tested, and the EC50 was less than 100 nM.
Compound `Cc1cc(OCCCc2c(C(=O)O)n(CCN3CCN(C(=O)CNc4cccc5c4C(=O)N(C4CCC(=O)NC4=O)C5=O)CC3)c3c(-c4c(C)nn(C)c4C)cccc23)cc(C)c1Cl` (stereo not shown) [Compound 233, 3-(3-(4-chloro-3,5-dimethylphenoxy)propyl)-1-(2-(4-((2-(2,6-dioxopiperidin-3-yl)-1,3-dioxoisoindolin-4-yl)glycyl)piperazin-1-yl)ethyl)-7-(1,3,5-trimethyl-1H-pyrazol-4-yl)-1H-indole-2-carboxylic acid] has an EC50 of less than 1000 nM.
With `Cc1nn(CCCOCCOCCNc2cccc3c2C(=O)N(C2CCC(=O)NC2=O)C3=O)c(C)c1-c1cccc2c(CCCOc3cccc4ccccc34)c(C(=O)O)n(CCN3CCOCC3)c12` (stereo not shown) [Compound 232, 7-(1-(3-(2-(2-((2-(2,6-dioxopiperidin-3-yl)-1,3-dioxoisoindolin-4-yl)amino)ethoxy)ethoxy)propyl)-3,5-dimethyl-1H-pyrazol-4-yl)-1-(2-morpholinoethyl)-3-(3-(naphthalen-1-yloxy)propyl)-1H-indole-2-carboxylic acid] the EC50 was less than 1000 nM.
Compound `Cc1c2c(nn1C)CSCc1cc(n(C)n1)CSc1cc(c3ccccc3c1)OCCCc1c(C(=O)NS(=O)(=O)CCNC(=O)CCOCCOCCNc3cccc4c3C(=O)N(C3CCC(=O)NC3=O)C4=O)n(C)c3c-2c(Cl)ccc13` (stereo not shown) [Compound 261, N-{2-[({17-chloro-5,13,14,22-tetramethyl-28-oxa-2,9-dithia-5,6,12,13,22-pentaazaheptacyclo[27.7.1.1^4,^7.0^11,^15.0,^16,^21.0^20,^24.0^30,^35]octatriaconta-1(37),4(38),6,11,14,16,18,20,23,29,31,33,35-tridecaen-23-yl}formamido)sulfonyl]ethyl}-3-[2-(2-{[2-(2,6-dioxopiperidin-3-yl)-1,3-dioxo-2,3-dihydro-1H-isoindol-4-yl]amino}ethoxy)ethoxy]propanamide] has an EC50 of less than 1000 nM.
`Cc1cc(OCCCc2c(C(=O)O)n(C)c3c(-c4c(C)nn(CCCOCCOCCNc5cccc6c5C(=O)N(C5CCC(=O)NC5=O)C6=O)c4C)cccc23)cc(C)c1Cl` (stereo not shown) [Compound 227, 3-(3-(4-chloro-3,5-dimethylphenoxy)propyl)-7-(1-(3-(2-(2-((2-(2,6-dioxopiperidin-3-yl)-1,3-dioxoisoindolin-4-yl)amino)ethoxy)ethoxy)propyl)-3,5-dimethyl-1H-pyrazol-4-yl)-1-methyl-1H-indole-2-carboxylic acid] showed an EC50 of less than 1000 nM.
`Cc1nn(C)c(C)c1-c1c(Cl)ccc2c(CCCN(C)c3cccc4ccccc34)c(C(=O)O)n(CCN3CCN(C(=O)COc4cccc5c4CN(C4CCC(=O)NC4=O)C5=O)CC3)c12` (stereo not shown) [Compound 353, 6-Chloro-1-(2-(4-(2-((2-(2,6-dioxopiperidin-3-yl)-1-oxoisoindolin-4-yl)oxy)acetyl)piperazin-1-yl)ethyl)-3-(3-(methyl(naphthalen-1-yl)amino)propyl)-7-(1,3,5-trimethyl-1H-pyrazol-4-yl)-1H-indole-2-carboxylic acid] showed an EC50 of less than 1000 nM.
`Cc1nn(C)c(C)c1-c1c(Cl)ccc2c(CCCOc3cccc4ccccc34)c(C(=O)O)n(CCN3C[C@@H]4C[C@H]3CN4C(=O)COc3cccc4c3CN(C3CCC(=O)NC3=O)C4=O)c12` (stereo partly drawn) [Compound 209, 6-chloro-1-{2-[(1S,4S)-5-(2-{[2-(2,6-dioxopiperidin-3-yl)-1-oxo-2,3-dihydro-1H-isoindol-4-yl]oxy}acetyl)-2,5-diazabicyclo[2.2.1]heptan-2-yl]ethyl}-3-[3-(naphthalen-1-yloxy)propyl]-7-(1,3,5-trimethyl-1H-pyrazol-4-yl)-1H-indole-2-carboxylic acid] gave an EC50 of less than 100 nM.
`Cc1nn(C)c(COc2ccc(N3CCN(S(=O)(=O)N(C)C)CC3)cc2)c1-c1cccc2c(CCCOc3cccc4ccccc34)c(C(=O)O)n(CCN3CCN(CCCOCCOCCNc4cccc5c4C(=O)N(C4CCC(=O)NC4=O)C5=O)CC3)c12` (stereo not shown) [Compound 247, 7-(5-((4-(4-(N,N-dimethylsulfamoyl)piperazin-1-yl)phenoxy)methyl)-1,3-dimethyl-1H-pyrazol-4-yl)-1-(2-(4-(3-(2-(2-((2-(2,6-dioxopiperidin-3-yl)-1,3-dioxoisoindolin-4-yl)amino)ethoxy)ethoxy)propyl)piperazin-1-yl)ethyl)-3-(3-(naphthalen-1-yloxy)propyl)-1H-indole-2-carboxylic acid trifluoroacetate] was tested, and the EC50 was less than 1000 nM.
`Cc1nn(C)c(COc2ccc(N3CCN(S(=O)(=O)N(C)C)CC3)cc2)c1-c1cccc2c(CCCOc3cccc4ccccc34)c(C(=O)O)n(CCN3CCN(C(=O)COc4ccc5c(c4)C(=O)N(C4CCC(=O)NC4=O)C5=O)CC3)c12` (stereo not shown) [Compound 248, 7-(5-((4-(4-(N,N-dimethylsulfamoyl)piperazin-1-yl)phenoxy)methyl)-1,3-dimethyl-1H-pyrazol-4-yl)-1-(2-(4-(2-((2-(2,6-dioxopiperidin-3-yl)-1,3-dioxoisoindolin-5-yl)oxy)acetyl)piperazin-1-yl)ethyl)-3-(3-(naphthalen-1-yloxy)propyl)-1H-indole-2-carboxylic acid] showed an EC50 of less than 1000 nM.
